Measured values reported in patent publication US9874563B2, “Detecting and quantifying cryptic HIV replication” (UNIVERSITY OF DELAWARE, priority 2012, dated 2018).
Several values for one entry are separate records, joined by “and”; a condition that tells them apart may be missing. Equal entries are not always repeated.

What was measured:
[1] = test system: HIV; assay: Model fit of 2-LTR dynamics following raltegravir intensification (nonlinear mixed-effects, Bayesian MCMC); set-up: species or system human
Text: Previous work has been done on identifying HIV model parameters from experiments involving the use of integrase inhibitors. These models, however, considered only standard viral load measurements, not measurements of 2-LTR circle frequency. We introduce a simple model of the dynamics of the concentrations of actively infected cells y(t) and cells containing 2-LTR episomes c(t) in the site of episome formation. We model the behavior both in the absence of raltegravir uII=0 and in the presence of raltegravir uII=1.
The reproductive ratio of the virus prior to raltegravir intensification is R, and the reproductive ratio after raltegravir intensification is (1−ηII)R, where ηII is the effectiveness of raltegravir at interrupting infection events that would otherwise have occurred without intensification. The reproductive ratios are defined as the average number of infected cells created per infected cell in a single generation. If the virus was replicating efficiently prior to intensification (R0>1), then the measured R would be approximately equal to 1 at equilibrium, as the efficient replication would necessarily be target cell limited. If the infection is controlled prior to intensification (R0<1), then the measured reproductive ratio R will be approximately equal to R0.
2-LTR circles may also be formed at an integrase inhibitor-enhanced rate in the presence of raltegravir. The rate at which infection events are interrupted by raltegravir after intensification is ηIIRay which, when multiplied by the probability 0<kII<1 that the interruption of an infection even leads to the formation of a 2-LTR episome, gives us the rate of integrase inhibitor-enhances 2-LTR formation kIIηIIRay. φ≧0 is the ratio between the intrinsic rate and the raltegravir-enhanced rate of 2-LTR formation.
These dynamics can be written in the form of Equation 1: y=−(1−(1−ηIIuII)R)ay+ye ċ=φkII(1−ηIIuII)Ray+kIIηIIuIIRay−δc (1)
To reduce the parametric covariance, we introduced a re-parametrized parameter A=kIIye/δ to replace kIIye. […]
The posterior distribution of the parameter likelihood given the measured 2-LTR values was computed using a Bayesian Markov-Chain Monte-Carlo method with Gibbs Sampling, as in References 56, 75, 78 and 79 with noninformative prior distributions for the parameters as follows:
Markov-Chain Monte-Carlo methods were used to fit Equation 5 to the experimental data for 13 patients, with shared parameters {θ, δ} and patient-specific parameters {R; ηII, kIIye}, using the measurement uncertainty model described in the Materials and Methods section. […] The maximum-likelihood predicted 2-LTR concentrations for each patient, together with the 95% prediction interval, is shown compared to the measured data in FIG. 3.

[2] = test system: HIV 2-LTR circles; settings: cited from earlier work
[3] = test system: HIV; settings: duration of the experiment; 13 patients of the experimental group; cited from earlier work

SMILES: Cc1nnc(C(=O)NC(C)(C)c2nc(C(=O)NCc3ccc(F)cc3)c(O)c(=O)n2C)o1 [raltegravir]
- effect on level of cryptic replication ([1]; addition of raltegravir to HAART, interpretation of the 2-LTR data): reduces the level of cryptic replication to undetectable levels
- increase in likelihood of 2-LTR formation when raltegravir interrupts integration ([1]; from 95% credible interval of φ): 250-1000 times
- ηII (ratio-reduction in R following raltegravir intensification; drug efficacy of raltegravir), MLE ([1]; maximum likelihood (posterior mode), patient-specific fitted parameter, one table row per patient): 0.01 (3×) and 0.19 and 0.02 and 0.49 and 0.77 and 0.05 and 0.03 and 0.79 and 0.81 and 0.99 and 0.08
- ηII (ratio-reduction in R following raltegravir intensification; drug efficacy of raltegravir), Median ([1]; posterior median, patient-specific fitted parameter, one table row per patient): 0.78 and 0.21 and 0.02 and 0.53 (3×) and 0.74 and 0.38 and 0.04 and 0.39 and 0.50 and 0.55 and 0.12
- patients with 2-LTR containing cells observed ([2]; HAART intensified by raltegravir for 48 weeks, experimental group of 45): 13/45 and 13 of the 45
- 2-LTR quantification, Week Post-Intensification 0 ([2]; week 0 (baseline at start of raltegravir intensification), individual HAART-suppressed patients, one table row per patient, censoring limit 1.20): <1.20 2-LTR per 10^6 PBMC (7×) and 1.76 2-LTR per 10^6 PBMC and 38.62 2-LTR per 10^6 PBMC and 35.30 2-LTR per 10^6 PBMC and 9.98 2-LTR per 10^6 PBMC and 2.99 2-LTR per 10^6 PBMC
- 2-LTR quantification, Week Post-Intensification 2 ([2]; week 2 of raltegravir intensification, individual patients, one table row per patient, censoring limit 1.20): 21.47 2-LTR per 10^6 PBMC and 48.16 2-LTR per 10^6 PBMC and 72.77 2-LTR per 10^6 PBMC and 30.55 2-LTR per 10^6 PBMC and 5.84 2-LTR per 10^6 PBMC and 12.98 2-LTR per 10^6 PBMC and 3.05 2-LTR per 10^6 PBMC and <1.20 2-LTR per 10^6 PBMC (4×) and 23.69 2-LTR per 10^6 PBMC and 1.98 2-LTR per 10^6 PBMC
- 2-LTR quantification, Week Post-Intensification 4 ([2]; week 4 of raltegravir intensification, individual patients, one table row per patient, censoring limit 1.20): <1.20 2-LTR per 10^6 PBMC (3×) and 9.07 2-LTR per 10^6 PBMC and 5.37 2-LTR per 10^6 PBMC and 13.42 2-LTR per 10^6 PBMC and 3.19 2-LTR per 10^6 PBMC and 2.68 2-LTR per 10^6 PBMC and 24.75 2-LTR per 10^6 PBMC and 21.07 2-LTR per 10^6 PBMC and 3.03 2-LTR per 10^6 PBMC
- 2-LTR quantification, Week Post-Intensification 12 ([2]; week 12 of raltegravir intensification, individual patients, one table row per patient, censoring limit 1.20): 10.38 2-LTR per 10^6 PBMC and 7.38 2-LTR per 10^6 PBMC and 1.26 2-LTR per 10^6 PBMC and <1.20 2-LTR per 10^6 PBMC (4×) and 1.61 2-LTR per 10^6 PBMC and 9.55 2-LTR per 10^6 PBMC and 39.64 2-LTR per 10^6 PBMC and 30.11 2-LTR per 10^6 PBMC
- 2-LTR quantification, Week Post-Intensification 24 ([2]; week 24 of raltegravir intensification, individual patients, one table row per patient, censoring limit 1.20): 2.73 2-LTR per 10^6 PBMC and 2.20 2-LTR per 10^6 PBMC and <1.20 2-LTR per 10^6 PBMC (8×) and 1.88 2-LTR per 10^6 PBMC and 1.29 2-LTR per 10^6 PBMC
- 2-LTR quantification, Week Post-Intensification 48 ([2]; week 48 of raltegravir intensification, individual patients, one table row per patient, censoring limit 1.20): <1.20 2-LTR per 10^6 PBMC (9×) and 7.04 2-LTR per 10^6 PBMC
- plasma viral load [3]: remained below the standard limit of detection
